Calls of active or inactive are those of the source.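 How the source made its calls: active means compounds giving half or more protection of infected cells from virus-caused growth loss, again on retest; inactive means the rest.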 Where a SMILES comes first, the peptide text is derived from it.
Test system: CEM cells HIV-1 protection, formazan growth assay
Test: NCI AIDS Antiviral Assay
Conditions: for IC50: measured here: growth of uninfected CEM cells
In short: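 Human CEM cells, uninfected and HIV-1-infected, received five drug concentrations, and growth was read by soluble formazan assay. Compounds giving at least 50% protection were retested; reproducible 100% protection defined confirmed active.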

Structure (SMILES) | EC50 [µM] | IC50 [µM] | outcome
COC(=O)/C=C1\C=CC=CC12C(C(=O)OC)c1ccccc1C(C(=O)OC)C2C(=O)OC (stereo not drawn) | > 200 | > 200 | 
CC1=Nc2nc(=N)nc3cccc(n23)N1 | > 200 | 170 | 
Cc1cn(C2CC(CCCO)C(CO)O2)c(=O)[nH]c1=O (stereo not drawn) | > 871 | > 871 | 
COc1ccccc1N1CCN(S(=O)(=O)c2ccc(Cl)cc2)C1=N | > 200 | 77.6 | 
CC(=O)OCC1=C(C)C[C@H]([C@@H](COC(C)=O)C2CCC3C4C[C@H]5O[C@]56CC=CC(=O)[C@]6(C)C4CC[C@@]32C)OC1=O (stereo partly drawn) | > 200 | 0.135 | 
O=C(O)C(CS)N=c1c2ccccc2n(O)c2ccccc12 (stereo not drawn) |  |  | inactive
CCN1C[C@]2(C)CC[C@H](OCc3ccccc3)C34C5C[C@@H]6CC[C@](O)(C(C[C@@H]32)C14)C5[C@H]6OCc1ccccc1 (stereo partly drawn) | > 200 | > 100 | 
N/C(=N\N=C\c1ccc2c(c1)OCO2)N/N=C\c1ccc2c(c1)OCO2 | > 200 |  | 
CCOC(=O)C1SC(=Nc2cccc(Cl)c2C)N=C1C (stereo not drawn) | 6.03 | 60.3 | 
Cc1[nH]nc2c1NC(=O)OC2 | > 1170 | > 1170 | 
CCOC(=O)NP(=O)(NC(=O)OCC)NC(=O)OCC |  |  | inactive
Nc1nc(Cl)cc(OCC2(CO)CCC2)n1 | > 200 | 135 | 
O=C(Nc1cccc([N+](=O)[O-])c1)C(=O)C(C(=O)c1ccccc1-c1ccccc1)C1OC(=O)c2ccccc21 (stereo not drawn) | > 69.2 | 33.1 | 
COc1ccc(/C=N/Nc2nc3ccccc3c(=O)n2-c2ccccc2)c(OCc2ccccc2)c1 | > 200 |  | 
Cc1cccc(CNc2ncnc3[nH]ncc23)c1 | > 200 | > 200 | 
Cc1cc(=N)cc(C)n1O | > 1820 | > 1820 | 
O=[N+]([O-])c1ccc(-c2noc(-c3ccccc3)c2C2=NCCN2)cc1 | > 15.5 | > 15.5 | 
CN(C)CCC[N+]1=Nc2cccc3cccc(c23)N1 |  |  | inactive
COc1ccc(N=NN2CCCC2)cc1 | > 200 | 15.5 | 
c1ccc2c(c1)nnn2CNc1ccc(N2CCOCC2)cc1 | > 200 | 51.3 | 
O=[N+]([O-])c1ccc(C=Cc2ccccc2)cc1.[C-]#[O+].[C-]#[O+].[C-]#[O+].[Cr] |  |  | inactive
O=c1cc(-c2ccc(O)cc2)oc2cc(O)cc(O)c12 | > 55 | 20.4 | 

Structure (SMILES) | EC50 [µM] | IC50 [µM] | outcome
N=C(N)n1[nH]c2c(c1=O)CCCC2 | > 200 | > 200 | 
CC1(C)OC(=O)c2cc(C(=CCCO)c3cc(Cl)c4c(c3)C(=O)OC(C)(C)O4)cc(Cl)c2O1 | > 200 | 28.8 | 
c1ccc2c3nnc(c2c1)SCCCSc1nnc(c2ccccc12)SCCCS3 | > 200 | > 200 | 
O=C(CC(=O)N1N=C(c2ccccc2)C(N=Nc2ccc(Cl)cc2)C1=O)Nc1ccccc1Cl (stereo not drawn) | > 38 | > 38 | 
CC(C)CC(NC(=O)C(CO)NC(=O)C(CCCCN)NC(=O)C(CCCCN)NC(=O)C(NC(=O)CNC(=O)C(C)NC(=O)C(CCCN=C(N)N)NC(=O)C(NC(=O)C(N)C(C)C)C(C)C)C(C)C)C(=O)O (stereo not drawn) (H-VVRAGVKKSL-OH; configuration not given here) |  |  | inactive
O=C1C(CN2CCCCC2)CCCC1CN1CCCCC1 (stereo not drawn) | > 550 | 6.17 | inactive
CCc1ccccc1NC(=O)C(=O)CC(=O)c1sc(Nc2ccccc2)nc1C | > 89.1 | 53.7 | 
CC1(C)OC(=O)C(C#N)=C1/C=C1\OC(=O)c2ccccc21 | > 178 | 52.5 | 
CCn1c(=O)c(N=O)c(N)n(CC(C)C)c1=O | > 200 | 174 | 
CCN(CC)CC1CCCCN1CC(=O)N1c2ccc(Br)cc2C(=O)Nc2cccnc21 (stereo not drawn) | > 200 | > 200 | 
COc1ccc(Br)c(CCC(CO)C2=CCC3(CC2)OCCO3)c1 (stereo not drawn) | 15.8 | 87.1 | 
Cc1ccc(Nc2nc3c(s2)C(=O)c2ccccc2C3=O)cc1 | > 16.2 | 6.17 | 
C=CCCC1(O)C(O)C(CO)O[C@H](O[C@@]2(CO)OC(CO)C(O)C2O)C1O (stereo partly drawn) |  |  | inactive
Nc1nc2c(c(=O)[nH]1)N1CN(c3ccc(C(=O)NC(CCC(=O)O)C(=O)O)cc3)CCC1CN2 (stereo not drawn) | > 347 | 60.3 | 
O=C1C(c2ccc([N+](=O)[O-])cc2)=C(Cl)C(=O)c2c(O)cccc21 | > 398 | 8.71 | 
O=C(O)Cc1ccc(Nc2nc3ccccc3nc2C(=O)O)cc1 | > 200 | > 200 | 
CCCCCC[N+](C)(C)Cc1ccc(C[N+](C)(C)CCCCCC)cc1 |  |  | inactive
CCCC1(N2C(=O)c3ccc4c5c(ccc(c35)C2=O)N(C2(CCC)CCCCC2)C4=O)CCCCC1 | > 100 | > 100 | 
COc1cc(/C=C2/C(=O)N(C(=O)c3ccc(Cl)cc3)N=C2C)cc(OC)c1OC | > 17.4 | > 17.4 | 
CC(C)=C1C(=O)N(c2ccccc2)N(c2ccccc2)C1=O | > 200 | 79.4 | 
COc1ccc(NC(=O)C(=O)C(CC2C(=O)NC(=S)NC2=O)C(=O)c2ccc3ccccc3c2)c([N+](=O)[O-])c1 (stereo not drawn) | > 123 | > 123 | 

From PubChem BioAssay AID179 (DTP/NCI, 2004)
